Like-named read-outs stand apart in the source and are kept apart here.
How the values were obtained:
[1] = Fluorescence titration with fondaparinux; assay type: binding; settings: for Kd: read-out: Apparent overall affinity for fond, K D^app ≈ BC50°
Excerpt: The fluorescence emission spectrum of 3AC upon excitation at 280 nm is a suitable indicator of the interaction with heparin-like GAGs. Thus, the titration of 3AC with fond in Bis-Tris buffer at pH 7.5 produced a perturbation of the corresponding intensity of the fluorene emission band (Figure A), presenting two clearly differentiated phases. At a low fond/3AC ratio, the fluorescence emission intensity decreases most likely due to the proximity of chromophores when several molecules of 3AC are closely bound to one molecule of fond. After reaching a fond/3AC molar ratio of ∼0.6, the emission band starts to recover as 3AC molecules are redistributed to equimolecular complexes with fond. Considering the disaccharide repeating unit of heparin as the main binding epitope of our ligands and the electrostatic charge complementarity, we can hypothesize the formation of fond/3AC supramolecular complexes with both 1:1 and 1:2 stoichiometries as the simplest binding model satisfying the two-phase behavior (Figure B). The emission band variation was successfully fitted to the 1:2 fond/3AC equilibria, rendering the formation constants (log β values) for the corresponding complexes (inset in Figure A).
Fluorescence emission and excitation spectra were collected on a Photon Technology International Instrument, Fluorescence Master Systems, using Felix32 software and cuvettes with 10 mm path length. Stock solutions of 3AC (10 μM) and fondaparinux (0.23 mM, also containing 10 μM 3AC) were prepared in 1 mM Bis-Tris buffer at pH 7.5. Then, 2 mL of binder solution was placed on a quartz cell, and the emission fluorescence spectrum was measured upon excitation at 280 nm. Then, small volumes of fond stock solution were added to the cell, and the fluorescence spectra were acquired after each addition. The titration experiments were fitted using HyperSpec 2008 software, , which allows a nonlinear global fitting of the full emission spectra to a binding mode as defined by the user.

[2] = system: FXa/ATIII inhibited by LMWH; assay: In vitro FXa/ATIII enzymatic assay with LMWH; assay type: biochemical, human; settings: [LMWH] = [antidote] = 0.1 or 10 μM, Figure S3
Protocol: Recombinant antithrombin III and coagulation factor Xa were obtained from two different kits, Berichrom Heparin test (SIEMENS) and Kinetichrome Anti-Xa Heparin kit (Iduron). Methods for both kits are similar, but not identical. Differences will be spotted by method A (SIEMENS) and method B (Iduron). Following the manufacturer’s instructions, stock solutions were prepared as follows: human antithrombin III (1 IU/mL) and factor Xa reagent (0.4 μg/mL, human plasma fraction with additives Tris, sodium chloride, and EDTA). Chromogenic substrate specific for factor Xa was dissolved at 4 mM concentration (A: Z-D-Leu-Gly-Arg-ANBA-methyl amide, and B: Z-D-Arg-Gly-Arg-pNA). Additionally, either 4-nitroaniline (A) or N-Boc-4-nitroaniline (B) was added to the substrate solution at a concentration of 1.6 mM and used as an internal standard to quantify the hydrolysis of the chromogenic substrate. All compounds were dissolved in Milli-Q water at the desired stock concentrations prior to start of the assays and kept at 4 °C. […] FXa/ATIII activity was represented as the percent of hydrolysis, which was calculated from the normalized area of the cleaved peptide at 405 nm at each corresponding time point. […]

[3] = earlier work of the authors; reference number not given; read-out: Apparent affinity for heparin, K D^app; cited from earlier work

Kd ([1]; 1 mM Bis-Tris buffer pH 7.5) [µM] | Stepwise binding constant K (1:1) ([1]; fond/3AC 1:1 complex, 1 mM Bis-Tris buffer pH 7.5) | Stepwise binding constant K (1:2) ([1]; fond/3AC 1:2 complex, 1 mM Bis-Tris buffer pH 7.5) | Compound | Percent recovery of peptide substrate hydrolysis vs LMWH [2] | logβ(3AC-Fond) ([1]; formation constant from model fitting, 1:1 complex) | logβ(3AC2-Fond) ([1]; formation constant from model fitting, 1:2 fond/3AC complex) | Kd [3] [µM]
9.8 ± 0.3 | – | – | Oc1ccc2ccccc2c1CNCCCNCCCCNCCCNCc1c(O)ccc2ccccc12 [Compound 3FF] | more active than prot and similar to cir | – | – | –
4.5 ± 0.09 | 2.05 ± 0.05 × 10^5 M^–1 | 1.95 ± 0.19 × 10^4 M^–1 | Oc1ccccc1CNCCCNCCCCNCCCNCc1ccc2c(c1)Cc1ccccc1-2 [Compound 3AC] | more active than prot and similar to cir | 5.31(1) | 9.60(3) | ~0.5

Reference: paper PMC12070314, “Efficient Small-Molecule Reversal Agents for Anticoagulant Fondaparinux” (ACS Pharmacology & Translational Science, 2025)
